Earlier results, collected in patent publication US12295729B2, “Apparatus and method for delivery of antimicrobial during a transdermal sampling and delivery process” (Georgetown University, priority 2015, dated 2025).

Columns and labels:
[1] = tested on: Achromobacter xylosoxidans
[2] = tested on: Aggregatibacter actinomycetemcomitans
[3] = tested on: Burkholderia pseudomallei
[4] = tested on: Burkholderia thailandensis
[5] = tested on: Porphyromonas circumdentaria
[6] = tested on: Prevotella melaninogenica
[7] = tested on: Stenotrophomonas maltophilia

Measured: bacteria killing ability

LL-37 (LLGDFFRKSKEKIGKEFKRIVQRIKDFLRNLVPRTES; Antibacterial peptide LL-37; UniProt P49913 134-170, looked up) [antimicrobial peptide; the factotum human cathelicidin peptide]
kill: Bacillus anthracis | Enterococcus faecalis | Group A streptococcus | Group B Streptococcus | Lactobacillus casei | Listeria monocytogenes | Micrococcus luteus | Nocardia sp. | Propionibacterium acnes | Staphylococcus aureus | Streptococcus mutans | Streptococcus pneumonia | Borrelia spp. | Mycobacterium bovis | Mycobacterium smegmatis | [1] | Acinetobacter baumannii | [2] | Brucella suis | [3] | Burkholderia cepacia | [4] | Capnocytophaga spp. | Escherichia coli | Francisella novicida | Fusobacterium nucleatum | Haemophilus influenza | Helicobacter pylori | Klebsiella pneumonia | Leptospira interrogans | Mannheimia haemolytica | Pasteurella multocida | [5] | Porphyromonas gingivalis | Prevotella intermedia | Prevotella loescheii | [6] | Pseudomonas aeruginosa | Salmonella sp. | Shigella sp. | [7] | Tannerella forsythia | Treponema denticola | Treponema pallidum | Yersinia pestis
